Results as given in ChEMBL document CHEMBL1201862, “PubChem BioAssay data set” (2004).
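Compound exposure: 48 hours, 5 concentrations, 96-well plates. The concentration for 50% growth inhibition is given as GI50.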 Calls of active or inactive are those of the source. Rule as the data show it: active = GI50 up to about 1.1 µM and inactive = higher.

How the values were obtained:
Test in all cases: NCI tumour cell line growth inhibition, 48 h
OVCAR-5 = tested on: OVCAR-5
NCI-H23 = tested on: NCI-H23
SK-OV-3 = tested on: SK-OV-3
SF-539 = tested on: SF-539
LOX IMVI = tested on: LOX IMVI
SK-MEL-5 = tested on: SK-MEL-5
UO-31 = tested on: UO-31
SNB-75 = tested on: SNB-75
A549 = tested on: A549
HL-60 = tested on: HL-60
SK-MEL-2 = tested on: SK-MEL-2
Malme-3M = tested on: Malme-3M
OVCAR-4 = tested on: OVCAR-4
NCI-H522 = tested on: NCI-H522
A498 = tested on: A498
SF-268 = tested on: SF-268
CCRF-CEM = tested on: CCRF-CEM
CAKI-1 = tested on: CAKI-1

Compound	GI50 (OVCAR-5)	GI50 (NCI-H23)	GI50 (SK-OV-3)	GI50 (SF-539)	GI50 (LOX IMVI)	GI50 (SK-MEL-5)	GI50 (UO-31)	GI50 (SNB-75)	GI50 (A549)	GI50 (HL-60)	GI50 (SK-MEL-2)	GI50 (Malme-3M)	GI50 (OVCAR-4)	GI50 (NCI-H522)	GI50 (A498)	GI50 (SF-268)	GI50 (CCRF-CEM)	GI50 (CAKI-1)
O=NN(CCCl)C(=O)N[C@H]1CC[C@@H](C(=O)O)CC1	> 100 µM (inactive)	97.7 µM (inactive)	> 100 µM (inactive)	29.6 µM (inactive)	45.1 µM (inactive)	> 100 µM (inactive)	> 100 µM (inactive)	> 72.3 µM (inactive)	89.7 µM (inactive)	33.7 µM (inactive)	> 100 µM (inactive)	> 96.2 µM (inactive)	> 100 µM (inactive)	23 µM (inactive)	> 100 µM (inactive)	32.8 µM (inactive)	36.6 µM (inactive)	92.9 µM (inactive)
CCCCCCCCCC(=O)Oc1cccc2onc(C)c12	> 100 µM (inactive)	> 100 µM (inactive)	> 100 µM (inactive)	> 100 µM (inactive)	> 100 µM (inactive)	> 100 µM (inactive)	40.8 µM (inactive)	> 100 µM (inactive)	> 100 µM (inactive)	19.4 µM (inactive)	> 100 µM (inactive)	> 100 µM (inactive)	> 100 µM (inactive)	> 100 µM (inactive)		> 100 µM (inactive)	> 100 µM (inactive)	> 100 µM (inactive)
COc1ccc([C@H]2CC(=O)N3CCCC3N2)cc1 (some centres undefined)	> 100 µM (inactive)	> 100 µM (inactive)	> 100 µM (inactive)	> 100 µM (inactive)		> 100 µM (inactive)	> 100 µM (inactive)	> 100 µM (inactive)	> 100 µM (inactive)	> 100 µM (inactive)	> 100 µM (inactive)	> 100 µM (inactive)	> 100 µM (inactive)	> 100 µM (inactive)	> 100 µM (inactive)	> 100 µM (inactive)	> 100 µM (inactive)	> 100 µM (inactive)
CCOC(=O)C(C)(c1c(C)[nH]c2ccccc12)c1c(C)[nH]c2ccccc12	19.6 µM (inactive)	17.1 µM (inactive)	26 µM (inactive)	18.7 µM (inactive)		15.7 µM (inactive)	12.5 µM (inactive)	17.6 µM (inactive)	19 µM (inactive)	12.1 µM (inactive)	18.8 µM (inactive)	17.3 µM (inactive)	14.9 µM (inactive)		17.8 µM (inactive)		17.9 µM (inactive)	14.3 µM (inactive)
C=C(C)C1CCC2(C)CC1c1c(c(C)cc3c1[nH]c1ccccc13)O2 (centres undefined)	> 25 µM (inactive)		> 25 µM (inactive)	> 25 µM (inactive)	> 25 µM (inactive)	> 25 µM (inactive)	12.6 µM (inactive)		> 25 µM (inactive)	11.9 µM (inactive)	> 25 µM (inactive)	> 25 µM (inactive)	11.7 µM (inactive)	15 µM (inactive)		> 25 µM (inactive)	24.3 µM (inactive)	
Brc1ccc2c(c1)C1(c3cc(Br)ccc3-2)c2cc(Br)ccc2-c2ccc(Br)cc21	> 100 µM (inactive)	> 100 µM (inactive)	> 100 µM (inactive)	> 100 µM (inactive)	> 100 µM (inactive)		> 100 µM (inactive)		> 100 µM (inactive)	> 100 µM (inactive)	> 100 µM (inactive)	> 100 µM (inactive)	> 100 µM (inactive)	> 100 µM (inactive)		> 100 µM (inactive)	> 100 µM (inactive)	> 100 µM (inactive)
Cc1cn(C2CC(n3cncn3)C(C(C)O)O2)c(=O)[nH]c1=O (centres undefined)	> 100 µM (inactive)	> 100 µM (inactive)	> 100 µM (inactive)	> 100 µM (inactive)	> 100 µM (inactive)	> 100 µM (inactive)	> 100 µM (inactive)	> 100 µM (inactive)	> 100 µM (inactive)	> 100 µM (inactive)	> 100 µM (inactive)	> 100 µM (inactive)	> 100 µM (inactive)	> 100 µM (inactive)		> 100 µM (inactive)	> 100 µM (inactive)	
Nc1ccc(C(=O)N/C(=C\c2cccc([N+](=O)[O-])c2)c2nc3c4c(ccc3[nH]2)C(=O)c2ccccc2C4=O)cc1	> 100 µM (inactive)	10.8 µM (inactive)	19.3 µM (inactive)	13.8 µM (inactive)	15.1 µM (inactive)	57.4 µM (inactive)	1.86 µM (inactive)	1.76 µM (inactive)	18.6 µM (inactive)		91.6 µM (inactive)	> 100 µM (inactive)	15 µM (inactive)	4.41 µM (inactive)	15.5 µM (inactive)	2.94 µM (inactive)	0.853 µM (active)	8.69 µM (inactive)
